Results as given in ChEMBL document CHEMBL1123955, “Improved delivery through biological membranes. 32. Synthesis and biological activity of brain-targeted delivery systems for various estradiol derivatives” (J Med Chem, 1988).
Several values for one entry are separate records, joined by “and”; a condition that tells them apart may be missing. Equal values may be shown once.

Tests used:
[1] = Rate constant in liver homogenate; type: ADME, tissue-based; details: tissue homogenate
[2] = Partition coefficient (logP); type: physicochemical; details: octanol/water
Rattus norvegicus [3] = organism: Rattus norvegicus; assay: Rate constant in whole rat blood; type: ADME
[4] = Half life in liver homogenate; type: ADME, tissue-based
[5] = Half life in whole rat blood; type: ADME
[6] = Half life in brain homogenate; type: ADME, tissue-based
[7] = Rate constant in brain homogenate; type: ADME, tissue-based
Rattus norvegicus [8] = assay: Concentration in brain 3 hr after administration of compound 4d; type: functional, organism-based
Rattus norvegicus [9] = assay: Concentration in blood 1 hr after administration of compound 4d; type: functional, organism-based
Rattus norvegicus [10] = assay: Concentration in brain 6 hr after administration of compound 4d; type: functional, organism-based
Rattus norvegicus [11] = assay: Concentration in blood 0.25 hr after administration of compound 4d; type: functional, organism-based
Rattus norvegicus [12] = assay: Concentration in brain hr after administration of compound 4d; type: functional, organism-based
Rattus norvegicus [13] = assay: Concentration in brain 24 hr after administration of compound 4d; type: functional, organism-based
Rattus norvegicus [14] = assay: Concentration in brain 0.25 hr after administration of compound 4d; type: functional, organism-based

Row | SMILES | k [1] [min⁻¹] | logP [2] | k (Rattus norvegicus [3]) [min⁻¹] | half-life [4] [min] | half-life [5] [min] | half-life [6] [min] | k [7] [min⁻¹] | Concentration (Rattus norvegicus [8]) [ng/g] | Concentration (Rattus norvegicus [9]) [ng/g] | Concentration (Rattus norvegicus [10]) [ng/g] | Concentration (Rattus norvegicus [11]) [ng/g] | Concentration (Rattus norvegicus [12]) | Concentration (Rattus norvegicus [13]) [ng/g] | Concentration (Rattus norvegicus [14]) [ng/g]
1 | CN1C=CCC(C(=O)O[C@H]2CC[C@H]3[C@@H]4CCc5cc(O)ccc5[C@H]4CC[C@]23C)=C1 | 0.0283 | 4.5 | 0.0175 | 30.5 | 39.6 | 12.9 | 0.0537 | – | – | – | – | – | – | –
2 | C#C[C@]1(OC(=O)c2ccc[n+](C)c2)CC[C@H]2[C@@H]3CCc4cc(O)ccc4[C@H]3CC[C@@]21C | – | – | – | – | – | – | – | 7.35 | 0.552 | 7.07 | 0.822 | 7.16 ng/g and 7.35 ng/g | 7.79 | 7.16
3 | C#C[C@]1(OC(=O)C2=CN(C)C=CC2)CC[C@H]2[C@@H]3CCc4cc(O)ccc4[C@H]3CC[C@@]21C | 0.0227 | 4.53 | 0.0139 | 24.5 | 49.9 | 12.4 | 0.0567 | – | – | – | – | – | – | –
